# Assay: Diffusion coefficient of His-tagged FtsAs and His-SUMO on Tris-NTA membranes (FRAP)
# Method: To study colocalization of His-tagged variants of FtsA, 0.5–1 µM of Cy5 labelled His-tagged FtsAs were added to the chamber, incubated for 20 min and washed 6x with reaction buffer. […] To control the density of membrane-bound FtsA, SUVs without and with Tris-NTA lipids were mixed to obtain the respective Tris-NTA concentrations. To perform FRET/FRAP experiments, equimolar concentrations of Cy3 and Cy5 labelled His-tagged FtsAs (total 0.5–1 µM) or His-SUMO-Cys were added to a chamber and treated as above. […] FRAP experiments were performed as described before.
# Bleaching the acceptor dye leads to an increase in the donor intensity, which can be used to quantify the Foerster Resonance energy transfer (FRET)[48]. FRET efficiency was quantified with E%=Ipost/Ipost+Ipre⋅100 , where Ipost is the intensity of the […] and Ipre is the […]. […] To extract the contribution of both processes, we adjusted a routine recently published by Gerganova et al.[33]. In short, the code provides the contribution of both modes of recovery by analysing the shape of the fluorescence recovery profile. […] Contribution of diffusion leads to a change of the slope of the outer borders of the bleached region (S4h right). Thus, by measuring the change of the slope of the border recovery, diffusion and simple on/off binding can be distinguished. We developed “FRAPdiff”, a graphical user interface, which uses the original fit routine by David Rutkowski. It can be used directly on.tiff movies with annotated bleach regions as ImageJ ROIs. In addition, we added optional bleach correction, user selectable projection axis (x or y), and optional mirroring of the recovery profiles, if bleaching was not symmetric. The original fit routine for estimating the recovery and diffusion dynamics can be found at https://github.com/davidmrutkowski/1DReflectingDiffusion. FRAPdiff is available at 10.5281/zenodo.6400639[49] under the GPLv3 open-source license.
substance,measurement,setting,value
FtsA-His6: FtsA WT (1-405) with amphipathic helix replaced by C-terminal His-tag,Diffusion Coefficient,"0.1% Tris NTA, + FtsZ, mean (n: WT 2, R286W 3)",0.07 µm2/s
same,Diffusion Coefficient,"0.1% Tris NTA, + FtsZ, replicate Exp1",0.14 µm2/s
same,Diffusion Coefficient,"0.1% Tris NTA, + FtsZ, replicate Exp2",0.000245 µm2/s
same,Diffusion Coefficient,"0.1% Tris NTA, without FtsZ, replicate Exp1",0.35 µm2/s
same,Diffusion Coefficient,"0.1% Tris NTA, without FtsZ, replicate Exp2",0.29 µm2/s
same,Diffusion Coefficient,"0.4% Tris NTA, + FtsZ, mean (n: WT 2, R286W 3)",0.0146 µm2/s
same,Diffusion Coefficient,"0.4% Tris NTA, + FtsZ, replicate Exp1",0.0175 µm2/s
same,Diffusion Coefficient,"0.4% Tris NTA, + FtsZ, replicate Exp2",0.0117 µm2/s
same,Diffusion Coefficient,"0.4% Tris NTA, without FtsZ, replicate Exp1",0.11 µm2/s
same,Diffusion Coefficient,"0.4% Tris NTA, without FtsZ, replicate Exp2",0.10 µm2/s
same,Diffusion Coefficient,"0.6% Tris NTA, + FtsZ, mean (n: WT 5, R286W 5)",0.0113 µm2/s
same,Diffusion Coefficient,"0.6% Tris NTA, + FtsZ, replicate Exp1",0.02 µm2/s
same,Diffusion Coefficient,"0.6% Tris NTA, + FtsZ, replicate Exp2",0.01 µm2/s
same,Diffusion Coefficient,"0.6% Tris NTA, + FtsZ, replicate Exp3",0.0152 µm2/s
same,Diffusion Coefficient,"0.6% Tris NTA, + FtsZ, replicate Exp4",0.00625 µm2/s
same,Diffusion Coefficient,"0.6% Tris NTA, + FtsZ, replicate Exp5",0.00411 µm2/s
same,Diffusion Coefficient,"0.6% Tris NTA, without FtsZ, mean (n: WT 4, R286W 5, SUMO 4)",0.03 µm2/s
same,Diffusion Coefficient,"0.6% Tris NTA, without FtsZ, replicate Exp1",0.0256 µm2/s
same,Diffusion Coefficient,"0.6% Tris NTA, without FtsZ, replicate Exp2",0.00783 µm2/s
same,Diffusion Coefficient,"0.6% Tris NTA, without FtsZ, replicate Exp3",0.0422 µm2/s
same,Diffusion Coefficient,"0.6% Tris NTA, without FtsZ, replicate Exp4",0.046 µm2/s
same,Diffusion Coefficient,"0.8% Tris NTA, + FtsZ, mean",0.012 µm2/s
same,Diffusion Coefficient,"0.8% Tris NTA, + FtsZ, replicate Exp1",0.00842 µm2/s
same,Diffusion Coefficient,"0.8% Tris NTA, + FtsZ, replicate Exp2",0.00437 µm2/s
same,Diffusion Coefficient,"0.8% Tris NTA, + FtsZ, replicate Exp3",0.00795 µm2/s
same,Diffusion Coefficient,"0.8% Tris NTA, + FtsZ, replicate Exp4",0.03 µm2/s
same,Diffusion Coefficient,"0.8% Tris NTA, + FtsZ, replicate Exp5",0.00835 µm2/s
same,Diffusion Coefficient,"0.8% Tris NTA, without FtsZ, mean",0.0135 µm2/s
same,Diffusion Coefficient,"0.8% Tris NTA, without FtsZ, replicate Exp1",0.0179 µm2/s
same,Diffusion Coefficient,"0.8% Tris NTA, without FtsZ, replicate Exp3",8.35e-15 µm2/s
same,Diffusion Coefficient,"0.8% Tris NTA, without FtsZ, replicate Exp4",0.0124 µm2/s
same,Diffusion Coefficient,"0.8% Tris NTA, without FtsZ, replicate Exp5",0.0374 µm2/s
same,Diffusion Coefficient,"1% Tris NTA, + FtsZ, mean",0.02 µm2/s
same,Diffusion Coefficient,"1% Tris NTA, + FtsZ, replicate Exp1",0.0115 µm2/s
same,Diffusion Coefficient,"1% Tris NTA, + FtsZ, replicate Exp2",0.00322 µm2/s
same,Diffusion Coefficient,"1% Tris NTA, + FtsZ, replicate Exp3",0.00542 µm2/s
same,Diffusion Coefficient,"1% Tris NTA, + FtsZ, replicate Exp4",0.00574 µm2/s
same,Diffusion Coefficient,"1% Tris NTA, + FtsZ, replicate Exp5",0.07 µm2/s
same,Diffusion Coefficient,"1% Tris NTA, + FtsZ, replicate Exp6",0.0435 µm2/s
same,Diffusion Coefficient,"1% Tris NTA, + FtsZ, replicate Exp7",0.000437 µm2/s
same,Diffusion Coefficient,"1% Tris NTA, without FtsZ, mean",0.0254 µm2/s
same,Diffusion Coefficient,"1% Tris NTA, without FtsZ, replicate Exp1",0.0438 µm2/s
same,Diffusion Coefficient,"1% Tris NTA, without FtsZ, replicate Exp2",0.000108 µm2/s
same,Diffusion Coefficient,"1% Tris NTA, without FtsZ, replicate Exp3",6.32e-6 µm2/s
same,Diffusion Coefficient,"1% Tris NTA, without FtsZ, replicate Exp4",0.06 µm2/s
same,Diffusion Coefficient,"Tris 0.10 %, + FtsZ",0.07 µm2/s
same,Diffusion Coefficient,"Tris 0.10 %, without FtsZ",0.32 µm2/s
same,Diffusion Coefficient,"Tris 0.40 %, + FtsZ",0.0146 µm2/s
same,Diffusion Coefficient,"Tris 0.40 %, without FtsZ",0.11 µm2/s
same,Diffusion Coefficient,"Tris 0.60 %, + FtsZ",0.0113 µm2/s
same,Diffusion Coefficient,"Tris 0.60 %, without FtsZ",0.03 µm2/s
same,Diffusion Coefficient,"Tris 0.80 %, + FtsZ",0.012 µm2/s
same,Diffusion Coefficient,"Tris 0.80 %, without FtsZ",0.0135 µm2/s
same,Diffusion Coefficient,"Tris 1.00 %, + FtsZ",0.02 µm2/s
same,Diffusion Coefficient,"Tris 1.00 %, without FtsZ",0.0254 µm2/s
same,Diffusion Coefficient,"Tris 2.00 %, + FtsZ",0.000263 µm2/s
same,Diffusion Coefficient,"Tris 2.00 %, without FtsZ",0.00604 µm2/s
same,Diffusion Coefficient,"[…] Tris NTA, + FtsZ, mean (n: WT 2, R286W 3)",0.03 µm2/s
same,Diffusion Coefficient,"[…] Tris NTA, + FtsZ, replicate Exp1",0.05 µm2/s
same,Diffusion Coefficient,"[…] Tris NTA, + FtsZ, replicate Exp2",0.0108 µm2/s
same,Diffusion Coefficient,"[…] Tris NTA, without FtsZ, replicate Exp1",0.11 µm2/s
same,Diffusion Coefficient,"[…] Tris NTA, without FtsZ, replicate Exp2",0.14 µm2/s
same,Diffusion Coefficient,"[…] Tris-NTA, + N (FtsNcyto), mean",1.72E-05 µm2/s
same,Diffusion Coefficient,"[…] Tris-NTA, + N/Z, Exp. 1",1.69E-05 µm2/s
same,Diffusion Coefficient,"[…] Tris-NTA, + N/Z, Exp. 2",1.87E-06 µm2/s
same,Diffusion Coefficient,"[…] Tris-NTA, + N/Z, Exp. 3",5.64E-12 µm2/s
same,Diffusion Coefficient,"[…] Tris-NTA, + N/Z, mean",6.26E-06 µm2/s
same,Diffusion Coefficient,"[…] Tris-NTA, + N, Exp. 1",1.23E-05 µm2/s
same,Diffusion Coefficient,"[…] Tris-NTA, + N, Exp. 2",2.69E-05 µm2/s
same,Diffusion Coefficient,"[…] Tris-NTA, + N, Exp. 3",1.23E-05 µm2/s
same,Diffusion Coefficient,"[…] Tris-NTA, + Z (FtsZ), mean",1.67E-03 µm2/s
same,Diffusion Coefficient,"[…] Tris-NTA, + Z, Exp. 1",3.64E-05 µm2/s
same,Diffusion Coefficient,"[…] Tris-NTA, + Z, Exp. 2",4.36E-03 µm2/s
same,Diffusion Coefficient,"[…] Tris-NTA, + Z, Exp. 3",1.74E-03 µm2/s
same,Diffusion Coefficient,"[…] Tris-NTA, + Z, Exp. 4",5.51E-04 µm2/s
same,Diffusion Coefficient,"[…] Tris-NTA, alone, Exp. 1",1.17E-02 µm2/s
same,Diffusion Coefficient,"[…] Tris-NTA, alone, Exp. 2",2.57E-05 µm2/s
same,Diffusion Coefficient,"[…] Tris-NTA, alone, Exp. 3",3.15E-03 µm2/s
same,Diffusion Coefficient,"[…] Tris-NTA, alone, Exp. 4",7.92E-04 µm2/s
same,Diffusion Coefficient,"[…] Tris-NTA, alone, mean",3.92E-03 µm2/s

# Reference: paper PMC9098913, “In vitro reconstitution of Escherichia coli divisome activation” (Nature Communications, 2022)
